From ChEMBL document CHEMBL4177618, “Design and synthesis of a novel series of (1'S,2R,4'S)-3H-4'-azaspiro[benzo[4,5]imidazo[2,1-b]oxazole-2,2'-bicyclo[2.2.2]octanes] with high affinity for the α7 neuronal nicotinic receptor” (Bioorg Med Chem Lett, 2017)
pEC50, pIC50, pKi: −log10 of the molar value.

Assays:
[1] = target: T1, 5-hydroxytryptamine receptor 3A (Homo sapiens, UniProt P46098); test: Antagonist activity at human 5-HT3A receptor expressed in HEK293 cells assessed as inhibition of 5-HT-induced calcium flux preincubated for 30 mins prior to 5-HT addition by Fluo-4 AM dye based FLIPR assay; type: cell-based
T1 sequence (P46098 whole entry): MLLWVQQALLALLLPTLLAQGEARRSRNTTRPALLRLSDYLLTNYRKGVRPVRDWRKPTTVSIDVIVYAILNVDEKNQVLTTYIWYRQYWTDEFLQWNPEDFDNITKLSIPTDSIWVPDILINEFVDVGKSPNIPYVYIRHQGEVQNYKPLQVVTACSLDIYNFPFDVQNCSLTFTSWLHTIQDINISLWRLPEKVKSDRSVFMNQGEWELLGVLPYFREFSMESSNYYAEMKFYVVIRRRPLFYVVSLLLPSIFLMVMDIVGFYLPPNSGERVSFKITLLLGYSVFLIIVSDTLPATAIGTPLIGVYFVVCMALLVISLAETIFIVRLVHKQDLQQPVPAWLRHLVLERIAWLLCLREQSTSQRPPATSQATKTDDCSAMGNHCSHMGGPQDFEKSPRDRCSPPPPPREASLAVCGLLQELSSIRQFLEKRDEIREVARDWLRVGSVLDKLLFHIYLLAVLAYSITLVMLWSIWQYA

[2] = target: T2, Neuronal acetylcholine receptor subunit alpha-7 (Rattus norvegicus, UniProt Q05941); test: Agonist activity at rat alpha7 nAChR expressed in HEK293 cells co-expressing human RIC-3 assessed as increase in calcium flux measured for 2 mins by Fluo-4 AM dye based FLIPR assay; type: cell-based
[3] = Selectivity ratio of IC50 for human 5-HT3A receptor expressed in HEK293 cells to EC50 for rat alpha7 nAChR expressed in HEK293 cells; type: cell-based
[4] = target: T2, Neuronal acetylcholine receptor subunit alpha-7; test: Displacement of [125I]alpha-bungarotoxin from rat alpha7 nAChR expressed in HEK293 cell membranes after 2 hrs by topcount scintillation counting analysis
[5] = Agonist activity at rat alpha1beta1deltaepsilon nAChR expressed in HEK293 cells assessed as increase in calcium flux measured for 2 mins by Fluo-4-AM dye based FLIPR assay; type: cell-based; settings: HEK293, 2 min
[6] = target: Neuronal acetylcholine receptor; alpha4/beta2 (Rattus norvegicus, UniProt P09483+P12390); test: Agonist activity at rat alpha4beta2 nAChR expressed in HEK293 cells assessed as increase in calcium flux measured for 2 mins by Fluo-4-AM dye based FLIPR assay; type: cell-based
[7] = target: Neuronal acetylcholine receptor; alpha3/beta4 (Rattus norvegicus, UniProt P04757+P12392); test: Agonist activity at rat alpha3beta4 nAChR expressed in HEK293 cells assessed as increase in calcium flux measured for 2 mins by Fluo-4-AM dye based FLIPR assay; type: cell-based
[8] = target: T1, 5-hydroxytryptamine receptor 3A; test: Binding affinity to 5-HT3A receptor (unknown origin)
[9] = target: Neuronal acetylcholine receptor subunit alpha-7 (Homo sapiens, UniProt P36544); test: Binding affinity to human alpha7 nAChR
Neuronal acetylcholine receptor subunit alpha-7 (Homo sapiens, UniProt P36544), sequence (P36544 whole entry): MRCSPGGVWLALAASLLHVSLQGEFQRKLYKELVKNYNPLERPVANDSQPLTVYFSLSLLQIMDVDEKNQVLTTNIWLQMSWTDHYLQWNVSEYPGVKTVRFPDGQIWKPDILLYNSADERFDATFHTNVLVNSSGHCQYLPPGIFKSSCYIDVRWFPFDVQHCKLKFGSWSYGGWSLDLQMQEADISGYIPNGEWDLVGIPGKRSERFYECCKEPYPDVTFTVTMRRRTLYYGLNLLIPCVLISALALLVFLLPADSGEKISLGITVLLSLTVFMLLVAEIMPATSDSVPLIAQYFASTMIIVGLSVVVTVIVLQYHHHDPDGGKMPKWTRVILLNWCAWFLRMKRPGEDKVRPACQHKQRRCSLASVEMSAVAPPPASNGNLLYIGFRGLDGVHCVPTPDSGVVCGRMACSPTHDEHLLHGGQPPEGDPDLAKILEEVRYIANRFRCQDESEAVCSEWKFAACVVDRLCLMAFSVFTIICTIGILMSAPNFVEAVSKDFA

T2 sequence (Q05941 whole entry): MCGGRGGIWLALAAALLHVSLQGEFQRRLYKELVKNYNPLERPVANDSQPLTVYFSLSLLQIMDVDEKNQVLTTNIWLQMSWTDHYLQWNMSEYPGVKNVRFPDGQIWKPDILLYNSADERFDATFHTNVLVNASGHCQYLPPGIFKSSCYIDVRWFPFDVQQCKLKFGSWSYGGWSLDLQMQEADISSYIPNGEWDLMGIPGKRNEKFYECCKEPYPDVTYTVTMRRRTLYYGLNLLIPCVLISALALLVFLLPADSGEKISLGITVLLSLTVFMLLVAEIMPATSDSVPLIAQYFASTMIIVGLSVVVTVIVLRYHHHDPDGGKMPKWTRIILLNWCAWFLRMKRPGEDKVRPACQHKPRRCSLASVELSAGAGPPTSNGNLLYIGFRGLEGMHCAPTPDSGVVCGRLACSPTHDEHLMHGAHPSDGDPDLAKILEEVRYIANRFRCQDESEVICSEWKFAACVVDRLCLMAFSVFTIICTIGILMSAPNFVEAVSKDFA
Neuronal acetylcholine receptor; alpha3/beta4, sequence (P04757 whole entry): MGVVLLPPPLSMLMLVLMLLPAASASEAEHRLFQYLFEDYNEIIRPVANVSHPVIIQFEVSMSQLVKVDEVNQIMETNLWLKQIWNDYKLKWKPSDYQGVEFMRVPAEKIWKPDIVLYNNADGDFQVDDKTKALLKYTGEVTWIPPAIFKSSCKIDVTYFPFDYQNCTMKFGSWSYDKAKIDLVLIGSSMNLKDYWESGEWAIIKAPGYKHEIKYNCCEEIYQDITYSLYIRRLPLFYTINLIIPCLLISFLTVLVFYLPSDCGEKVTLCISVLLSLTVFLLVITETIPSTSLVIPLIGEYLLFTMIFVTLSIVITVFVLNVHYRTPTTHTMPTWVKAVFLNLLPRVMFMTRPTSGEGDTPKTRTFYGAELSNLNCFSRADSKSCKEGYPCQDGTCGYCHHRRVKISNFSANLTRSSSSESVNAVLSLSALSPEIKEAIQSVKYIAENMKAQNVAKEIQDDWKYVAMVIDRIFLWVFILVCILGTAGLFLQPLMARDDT
Neuronal acetylcholine receptor; alpha3/beta4, sequence (P12392 whole entry): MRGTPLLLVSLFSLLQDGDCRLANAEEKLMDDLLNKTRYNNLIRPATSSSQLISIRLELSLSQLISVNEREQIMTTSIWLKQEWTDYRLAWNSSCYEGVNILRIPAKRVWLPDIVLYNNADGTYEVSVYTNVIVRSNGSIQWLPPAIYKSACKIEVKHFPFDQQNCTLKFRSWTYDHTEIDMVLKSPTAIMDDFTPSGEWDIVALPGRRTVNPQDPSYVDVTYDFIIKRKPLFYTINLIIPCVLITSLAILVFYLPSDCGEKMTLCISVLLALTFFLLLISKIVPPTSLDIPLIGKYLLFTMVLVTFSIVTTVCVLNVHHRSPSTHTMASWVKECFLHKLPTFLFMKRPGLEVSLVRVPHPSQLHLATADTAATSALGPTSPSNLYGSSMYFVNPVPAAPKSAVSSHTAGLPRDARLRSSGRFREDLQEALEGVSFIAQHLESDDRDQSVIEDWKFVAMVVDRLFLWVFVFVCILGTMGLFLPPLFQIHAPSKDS
Neuronal acetylcholine receptor; alpha4/beta2, sequence (P09483 whole entry): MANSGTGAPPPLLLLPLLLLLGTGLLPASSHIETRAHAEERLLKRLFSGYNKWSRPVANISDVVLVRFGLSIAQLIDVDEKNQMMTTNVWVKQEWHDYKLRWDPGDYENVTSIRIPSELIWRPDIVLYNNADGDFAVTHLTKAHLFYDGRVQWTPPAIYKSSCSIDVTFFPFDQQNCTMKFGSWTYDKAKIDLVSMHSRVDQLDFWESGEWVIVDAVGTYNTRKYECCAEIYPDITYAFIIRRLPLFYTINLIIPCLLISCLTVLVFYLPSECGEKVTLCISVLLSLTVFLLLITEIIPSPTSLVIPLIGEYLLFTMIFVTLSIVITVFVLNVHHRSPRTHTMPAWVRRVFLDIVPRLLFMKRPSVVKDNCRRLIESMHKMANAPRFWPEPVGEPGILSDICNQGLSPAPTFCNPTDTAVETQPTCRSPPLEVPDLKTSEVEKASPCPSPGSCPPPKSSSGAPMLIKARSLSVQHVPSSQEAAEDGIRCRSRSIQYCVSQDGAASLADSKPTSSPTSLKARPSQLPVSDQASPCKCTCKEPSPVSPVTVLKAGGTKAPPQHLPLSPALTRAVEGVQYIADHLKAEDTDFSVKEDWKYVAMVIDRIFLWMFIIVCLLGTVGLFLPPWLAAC
Neuronal acetylcholine receptor; alpha4/beta2, sequence (P12390 whole entry): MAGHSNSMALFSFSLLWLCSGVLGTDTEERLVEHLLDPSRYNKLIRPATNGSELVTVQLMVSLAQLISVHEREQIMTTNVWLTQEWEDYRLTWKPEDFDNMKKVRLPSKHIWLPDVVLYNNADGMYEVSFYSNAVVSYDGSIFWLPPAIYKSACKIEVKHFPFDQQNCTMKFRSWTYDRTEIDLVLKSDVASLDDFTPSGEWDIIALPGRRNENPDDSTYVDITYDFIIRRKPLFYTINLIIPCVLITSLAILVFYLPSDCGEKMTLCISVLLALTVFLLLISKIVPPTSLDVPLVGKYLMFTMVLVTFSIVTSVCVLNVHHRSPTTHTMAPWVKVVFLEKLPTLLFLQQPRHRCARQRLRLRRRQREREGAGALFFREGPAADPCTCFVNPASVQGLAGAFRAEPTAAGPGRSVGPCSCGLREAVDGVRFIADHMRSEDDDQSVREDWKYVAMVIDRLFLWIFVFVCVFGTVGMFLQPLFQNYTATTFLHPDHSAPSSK

Row | Compound | pIC50 [1] | pEC50 [2] | Ratio IC50/EC50 [3] | other results
1 | Brc1nc2n(c1Br)C[C@]1(CN3CCC1CC3)O2 | 5.01 | 5.39 |  | 
2 | c1ccc2c(c1)nc1n2C[C@]2(CN3CCC2CC3)O1 | 4.89 | 5.19 | 2 | 
3 | Cc1ccc2c(c1)nc1n2C[C@@]2(CN3CCC2CC3)O1 | 7.89 | 8.30 | 2.6 | 
4 | Clc1cccc2c1nc1n2C[C@@]2(CN3CCC2CC3)O1 | 8.40 | 7.80 | 0.3 | 
5 | FC(F)(F)c1ccc2nc3n(c2c1)C[C@@]1(CN2CCC1CC2)O3 | 7.77 | 7.16 | 0.25 | 
6 | Brc1nc2n(c1Br)CC1(CN3CCC1CC3)O2 (racemic) | 7.21 | 7.49 |  | 
7 | c1cnc2c(c1)C[C@@]1(CN3CCC1CC3)O2 [AZD0328] |  |  |  | pKi [4]: 8.30
8 | Clc1ccc2c(c1)nc1n2C[C@@]2(CN3CCC2CC3)O1 | 8.22 | 7.51 | 0.2 | 
9 | c1ccc2c(c1)nc1n2C[C@@]2(CN3CCC2CC3)O1 | 7.82 | 7.96 | 1.4 | pEC50 [5]: < 4.00; pEC50 [6]: < 4.00; pEC50 [7]: < 4.00
10 | Clc1ccc2nc3n(c2c1)C[C@@]1(CN2CCC1CC2)O3 | 8.05 | 7.85 | 0.6 | 
11 | Cc1ccc2nc3n(c2c1)C[C@@]1(CN2CCC1CC2)O3 | 8.22 | 7.48 | 0.2 | 
12 | COc1ccc2c(c1)nc1n2C[C@@]2(CN3CCC2CC3)O1 | 7.96 | 8.15 | 1.6 | 
13 | COc1ccc(-c2cccc3c2nc2n3C[C@@]3(CN4CCC3CC4)O2)cc1 | 4.98 | 7.59 | 400 | 
14 | Brc1nc2n(c1Br)C[C@@]1(CN3CCC1CC3)O2 | 7.37 | 7.72 |  | 
15 | Clc1cccc2nc3n(c12)C[C@@]1(CN2CCC1CC2)O3 | 7.96 | 6.57 | 0.04 | 
16 | FC(F)(F)c1ccc2c(c1)nc1n2C[C@@]2(CN3CCC2CC3)O1 | 6.18 | 7.89 | 51 | 
17 | Cc1cccc2c1nc1n2C[C@@]2(CN3CCC2CC3)O1 | 8.15 | 8.15 | 1 | 
18 | FC(F)(F)c1cccc2c1nc1n2C[C@@]2(CN3CCC2CC3)O1 | 7.96 | 7.66 | 0.5 | 
19 | c1ccc(-c2cnc3c(c2)C[C@@]2(CN4CCC2CC4)O3)cc1 |  |  |  | pKi [8]: 8.70; pKi [9]: 8.70
